In publication PMC9767854, “Discovery and mechanism studies of a novel ATG4B inhibitor Ebselen by drug repurposing and its anti-colorectal cancer effects in mice” (Cell & Bioscience, 2022):

How the values were obtained:
[1] = molecular target: T1, endogenous ATG4B in HeLa cells (Homo sapiens, UniProt Q9Y4P1); assay: Endogenous ATG4B activity in cells by FRET assay; format: cell-based
T1 construct: endogenous in cells; host or cells: HeLa
Description: Supplementary file 13578_2022_944_MOESM1_ESM.docx: Additional file 1: Figure S1. Screening of ATG4B inhibitors based on the approved drugs library by FRET assay. […] (D) Candidate compound number and name correspondence table, and IC50 calculation of nine commercially available compounds for ATG4B by FRET assay. Figure S2. […] Figure S3. […] Figure S5. […] Figure S6.

[2] = molecular target: T2, ATG4B 2CS (C292/361S) mutant (Homo sapiens, UniProt Q9Y4P1, C292S/C361S); assay: FRET-based assay, ATG4B 2CS mutant; format: biochemical; conditions: Ebselen 0.5 μM, 15-90 min; read-out: inhibition rate against ATG4B 2CS
T2 construct: 6xHis; made in house; host or cells: E. coli BL21(DE3)
Protocol: FRET-based assay for ATG4B or ATG4A activity was operated as previously described [5, 17]. Briefly, Recombinant protein ATG4B (0.75 μg/ml) or ATG4A (5 μg/ml) was incubated with compounds in reaction buffer (150 mM NaCl, 20 mM Tris–HCl, pH 8.0, 0.1% CHAPS, 1 mM EDTA) at 37 °C. After 30 min, substrate FRET-GATE-16 (50 μg/ml) was added to a final volume of 50 μl. The reaction was recorded via relative fluorescence intensity ratio of 527 nm/477 nm (RFU). The final inhibition rate of the compound for ATG4 was calculated as: (RFUcompound-RFUNC)/(RFUCON-RFUNC) × 100%; respectively, NC as negative control without inhibitor, CON as control without enzymes. For ATG4 activity determination in cells and tissues, cells or separated tumor samples were homogenized in a native lysis buffer (150 mM NaCl, 20 mM Tris–HCl, pH 7.6, 1% TritonX-100, 1 mM EDTA) without protease inhibitors. Then 5 μg total proteins from each sample was added into FRET assay system after clean supernatant proteins were separated. The reaction was recorded via relative fluorescence intensity ratio of 527 nm/477 nm. Finally, the inhibition rates of ATG4B were calculated with the vehicle or CM group as the negative control (ATG4 activity defined as 100%).

[3] = tested on: HCT116 cells; assay: Long-lived protein degradation assay; format: cell-based; conditions: 10 μM Ebselen, 2 μM Torin 1, 12 h
Protocol: Long-lived protein degradation assay was performed referring to the reported protocol. In brief, HCT116 cells were seeded in 6-well plates and cultured overnight, and then incubated with L-methionine-free DMEM (Thermo Fisher Scientific, 21,013,024) supplemented with 10% dialyzed FBS (Biological Industries, 2,148,391) for 30 min at 37℃ for depleting the methionine reserve. Subsequently, the cells were incubated with medium containing 50 μM AHA (MCE, HY-140346A) for 18 h to label AHA on proteins. After 2 h incubation with 10 × L-methionine to chase out the short-lived AHA-labeled proteins, cells were treated with compounds as indicated in regular medium for 12 h. Then the cells were harvested, fixed and permeabilized sequentially until they were incubated in the click reaction master mix (50 μM TAMRA alkyne [AAT Bioquest, AAT-487], 1 mM TCEP [MCE, HY-W011500], 100 μM TBTA [GLPBIO, GC45003], 1 mM CuSO4 [Sangon Biotech, C3008] in PBS) in the dark for 2 h. Finally, cells were washed and suspended in 500 μl PBS and analyzed by flow cytometry (BECKMAN, CytoFLEX S).

[4] = tested on: WT HCT116; assay: Cell viability by CCK-8 assay, WT HCT116; format: cell-based
Protocol: WT/ATG4B KO HCT116, WT/ATG4B KO SW620 and WT/ATG4B KO RKO cells were seeded in 96-well plate at 1000–1500 cells per well for cell viability assay, and seed in 6-well plate at 1 × 10^5 cells per well for cell number counting. After 12 h, the indicated drugs were added to the medium and cultured for another 96 h. Total viable cell numbers were counted by a cell counter (BioRAD), and cell viability was determined by cell-count-8 assay kit (CCK-8, Bimake, B34304) according to the manufacturer’s protocol.

T1 sequence (Q9Y4P1 whole entry): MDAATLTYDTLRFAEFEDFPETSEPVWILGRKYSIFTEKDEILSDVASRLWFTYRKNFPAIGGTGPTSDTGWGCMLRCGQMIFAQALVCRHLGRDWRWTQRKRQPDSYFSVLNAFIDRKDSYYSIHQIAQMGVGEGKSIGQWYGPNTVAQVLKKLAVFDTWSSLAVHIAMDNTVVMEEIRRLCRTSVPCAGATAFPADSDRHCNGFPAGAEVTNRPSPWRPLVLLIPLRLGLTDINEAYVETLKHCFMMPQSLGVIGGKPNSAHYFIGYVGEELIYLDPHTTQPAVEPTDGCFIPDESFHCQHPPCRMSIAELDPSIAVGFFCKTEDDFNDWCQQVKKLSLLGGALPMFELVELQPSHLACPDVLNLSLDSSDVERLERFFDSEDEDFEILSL
T2 sequence (Q9Y4P1 whole entry C292S/C361S): as the sequence (Q9Y4P1 whole entry) above, with C292S, C361S counted along it

O=c1c2ccccc2[se]n1-c1ccccc1 [Ebselen]
inhibition of endogenous ATG4B in cells [1]: inhibited in a time- and dose-dependent manner
inhibition at 0.5 µM [2]: < 90%
autophagic long-lived protein degradation induced by Torin 1 [3]: significantly inhibited
inhibition of the viability of CRC cell lines ([4]; Fig. 6F): ~ 50%
IC50 ([4]; Homo sapiens, HCT-116, CCK-8, 96 h): 18.9 µM
